Where a SMILES comes first, the peptide text is derived from it. Bridges are numbered along the chain shown (N, C = ends). Some results are limits rather than exact numbers.

The first assay deals with T1, Programmed cell death protein 1/Programmed cell death 1 ligand 1 (Homo sapiens, UniProt Q15116+Q9NZQ7). In words: Inhibition of PD1/PDL1 (unknown origin) interaction at 10 uM after 15 mins by HTRF assay relative to control. The assay is classed as protein-complex assay. (In general: In TR-FRET formats the signal depends on donor and acceptor labels being close together.)
T1 sequence (Q15116 whole entry): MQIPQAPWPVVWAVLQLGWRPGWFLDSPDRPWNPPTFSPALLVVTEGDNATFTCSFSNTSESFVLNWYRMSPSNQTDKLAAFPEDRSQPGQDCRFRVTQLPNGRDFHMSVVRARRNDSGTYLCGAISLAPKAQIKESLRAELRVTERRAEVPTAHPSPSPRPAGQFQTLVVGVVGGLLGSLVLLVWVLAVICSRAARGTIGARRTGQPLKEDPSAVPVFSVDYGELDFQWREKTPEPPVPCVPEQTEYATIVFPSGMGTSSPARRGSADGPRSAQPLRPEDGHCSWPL
T1 sequence (Q9NZQ7 whole entry): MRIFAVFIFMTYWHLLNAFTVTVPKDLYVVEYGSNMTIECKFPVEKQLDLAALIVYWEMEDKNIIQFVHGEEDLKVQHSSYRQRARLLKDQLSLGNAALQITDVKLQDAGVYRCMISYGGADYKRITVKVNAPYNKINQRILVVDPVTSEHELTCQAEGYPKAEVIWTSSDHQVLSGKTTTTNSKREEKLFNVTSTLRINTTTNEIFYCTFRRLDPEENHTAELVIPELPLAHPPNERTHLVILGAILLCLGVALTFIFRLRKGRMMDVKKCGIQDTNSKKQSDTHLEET
For `COc1ccc(Nc2cc(C(=O)Nc3ccc(Oc4ccccc4)cc3)ccn2)cc1`, the inhibition stood at 36%.

Another assay addresses T1, Programmed cell death protein 1/Programmed cell death 1 ligand 1. In words: Inhibition of PD1/PDL1 interaction in human jurkat cells co-expressing TCR promoter assessed as TCR activation by luciferase reporter gene assay. It is filed as cell-based.
Take `CC[C@H](C)[C@@H]1NC(=O)[C@H](CC(C)C)NC(=O)[C@H](Cc2ccccc2)NC(=O)CSC[C@@H](C(=O)NCC(N)=O)NC(=O)[C@H](CCCNC(=N)N)NC(=O)[C@H](Cc2ccccc2)NC(=O)[C@H](C(C)C)NC(=O)[C@H](CCCNC(=N)N)NC(=O)[C@H](CC(=O)O)NC(=O)[C@H](CCCNC(=N)N)NC(=O)[C@H]([C@@H](C)CC)NC(=O)[C@H](C(C)C)NC1=O` ({CH2CO}-FLIVIRDRVFRCG-NH2; thioether N-12): the EC50 is 6.3 µM.

A further assay concerns the target T2, V-type immunoglobulin domain-containing suppressor of T-cell activation (Homo sapiens) (UniProt Q9H7M9).
T2 sequence (whole entry): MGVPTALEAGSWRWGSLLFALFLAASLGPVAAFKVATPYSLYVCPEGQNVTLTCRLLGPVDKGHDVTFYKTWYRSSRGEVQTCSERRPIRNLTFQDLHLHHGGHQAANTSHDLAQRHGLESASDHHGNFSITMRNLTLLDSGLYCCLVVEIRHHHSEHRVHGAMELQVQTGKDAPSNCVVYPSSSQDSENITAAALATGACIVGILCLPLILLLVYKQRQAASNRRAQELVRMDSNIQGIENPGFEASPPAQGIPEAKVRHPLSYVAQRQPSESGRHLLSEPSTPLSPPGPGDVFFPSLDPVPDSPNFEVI
Description: Inhibition of VISTA signaling in human PBMC assessed as IFNgamma release at 100 nM after 30 mins by ELISA. A general note: ELISA stands for enzyme-linked immunosorbent assay.
As to `C[C@@H](O)[C@@H](NC(=O)N[C@@H](CC(N)=O)c1nc([C@@H](N)CO)no1)C(=O)O`, the inhibition is greater than 70%.
On to `C[C@@H](O)[C@H](NC(=O)N[C@@H](CC(N)=O)c1nc([C@@H](N)Cc2ccccc2)no1)C(=O)O`, for which the inhibition was 99%.

The target of the next assay is Programmed cell death 1 ligand 1 (Mus musculus) (UniProt Q9EP73). In words: Inhibition of PDL1 in C57BL6 mouse splenocytes assessed as protection against ant-CD3/CD28-stimulated cell proliferation at 100 nM after 4 hrs by CFSE-based FACS analysis relative to control. (A flow cytometer gives signals particle by particle.)
Chain of Programmed cell death 1 ligand 1 (Mus musculus) (Q9EP73 whole entry): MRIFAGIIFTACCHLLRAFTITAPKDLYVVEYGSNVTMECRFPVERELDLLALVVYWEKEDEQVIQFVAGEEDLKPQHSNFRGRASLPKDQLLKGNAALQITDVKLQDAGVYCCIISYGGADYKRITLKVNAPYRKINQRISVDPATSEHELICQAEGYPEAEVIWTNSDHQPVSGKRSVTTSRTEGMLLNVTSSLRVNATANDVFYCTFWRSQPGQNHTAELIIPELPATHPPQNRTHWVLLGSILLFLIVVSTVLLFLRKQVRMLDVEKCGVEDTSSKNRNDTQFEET
For the compound `NC(=O)C[C@H](NC(=O)[C@@H]1C[C@H](O)CN1)c1nc(N2CCCC2)no1`, the inhibition came out at 91%.
Turning to `C[C@@H](O)[C@@H](NC(=O)N[C@@H](CC(N)=O)c1nc([C@@H](N)CO)no1)C(=O)O`, the inhibition came out at 97%.
Consider `C[C@@H](O)[C@@H]1NC(=O)N[C@@H](C(N)=O)C(=O)NNC(=O)[C@@H](CO)NC(=O)COCCOCCNC1=O`, for which the inhibition was found to be 95%.
Still for that read-out and setting: then `NCCCC[C@H](NC(=O)N[C@@H](CC(N)=O)C(=O)NNC(=O)[C@@H](N)CO)C(=O)O`, with 87%.
The same measure, in the same setting: then `C[C@@H](O)[C@@H]1C(=O)N[C@H](CO)C(=O)N[C@H](C(=O)N[C@@H](CO)C(=O)N[C@@H](Cc2ccccc2)C(N)=O)CCCCNC(=O)CC[C@H](NC(=O)[C@@H](N)CO)C(=O)N1C`, with 82%.
For the compound `C[C@@H](O)C(NC(=O)[C@H](CCC(=O)O)NC(=O)[C@@H](N)CO)C(=O)N[C@H](CO)C(=O)N[C@H](CCCCN)C(=O)N[C@H](CO)CN[C@H](Cc1ccccc1)C(N)=O` (single isomer, unassigned), the inhibition turned out to be 81%.
Still for that read-out and setting: then `C[C@@H](O)[C@H](N)c1nnc([C@H](CCC(N)=O)NC(=O)N[C@@H](CO)C(=O)O)o1`, with 92%; and `COCCNC(=O)CC[C@H](NS(=O)(=O)C1CC1)c1nnc(-c2ccccc2OC)o1`, with 97%.
Consider `C[C@@H](O)[C@H](N)c1noc([C@H](Cc2ccc(O)cc2)NC(=O)N2CCC[C@H]2C(=O)O)n1`, for which the inhibition is 99%.
For `C[C@@H](O)[C@@H]1NC(=O)COCCOCCNC(=O)[C@@H](CO)NC(=O)N[C@H](C(N)=O)C(=O)NNC1=O`, the inhibition is 94%.

For the next assay, the target named is T1, Programmed cell death protein 1/Programmed cell death 1 ligand 1. Description: Inhibition of PD1/PDL1 (unknown origin) at 500 uM after 15 mins by HTRF assay relative to control. It is filed as protein-complex assay.
In turn, `CN(C)CCOc1ccc([N+](=O)[O-])c(OC(=O)N(C)C)c1` displayed an inhibition of 43%.

For another assay the target is unchanged. Description: Inhibition of PD1/PDL1 (unknown origin) interaction by HTRF assay. The assay is classed as protein-complex assay.
`Cc1c(/C=C/c2ncc(CNC(CO)C(=O)O)cc2C(F)(F)F)cccc1-c1ccc2c(c1)OCCO2` (configuration not stated): the half-inhibitory concentration (IC50) turned out to be 0.036 µM.

The target in the next assay is T3, Programmed cell death 1 ligand 1 (Homo sapiens, UniProt Q9NZQ7). In words: Binding affinity to Fc-labeled human PDL1 expressed in Escherichia coli by SPR spectroscopy.
T3 sequence (Q9NZQ7 whole entry): as the sequence (Q9NZQ7 whole entry) above
In the case of `C[C@@H](O)[C@H](NC(=O)[C@@H]1CCCN1C(=O)[C@H](CCCCN)NC(=O)[C@H](CO)NC(=O)[C@H](Cc1ccc(O)cc1)NC(=O)[C@@H](N)CC(N)=O)C(=O)N[C@@H](CC(=O)O)C(=O)N[C@@H](CCCNC(=N)N)C(=O)N[C@@H](CCC(N)=O)C(=O)N[C@@H](Cc1ccc(O)cc1)C(=O)N[C@@H](Cc1cnc[nH]1)C(=O)N[C@@H](Cc1ccccc1)C(=O)O`, the Kd worked out at 0.51 µM.
Still for that read-out and setting: then H-MRNRERYPKPYY-OH, with 22 µM.
The compound H-KHAHHTHNLRLP-OH had a Kd of 1.13 µM.

A further assay concerns the target T1, Programmed cell death protein 1/Programmed cell death 1 ligand 1. Description: Inhibition of recombinant human PD1 (25 to 167 residues)/human PDL1 (19 to 238 residues) interaction after 40 mins by HTRF assay. It is filed as protein-complex assay.
With `N#Cc1c(-c2ccc3c(c2)OCCO3)cccc1N1CCC(NC2CCCOC2)CC1` (configuration not stated), the IC50 is no more than 0.1 µM.
Still for that read-out and setting: then `Cc1cc(C(=O)Nc2cccc(-c3ccccc3)c2C)ncc1CNCCO`, with no more than 0.1 µM; and `Cc1c(-c2ccccc2)cccc1-c1cc2ccc(CNCCO)cn2n1`, with no more than 0.1 µM.
In the case of `N#Cc1c(NC(=O)c2nc3c(s2)CNCC3)cccc1-c1ccc2c(c1)OCC2`, the IC50 was no more than 0.1 µM.
Regarding `COc1cc2oc(-c3cccc(-c4ccccc4)c3C)nc2cc1CNCCO`, the IC50 was no more than 0.1 µM.
For `N#Cc1c(Nc2nccc3cc(CNCCO)cnc23)cccc1C1=CCCCC1`, the IC50 was no more than 0.1 µM.
Consider `Cc1c(-c2ccccc2)cccc1-n1cc2c(n1)CNCC2`, for which the 50% inhibitory concentration (IC50) is no more than 0.1 µM.

The target of the next assay is T3, Programmed cell death 1 ligand 1. Description: Binding affinity to biotinylated PDL1 (unknown origin) expressed in Escherichia coli OmpX membrane after 45 mins by SAPE-fluorescence based flow cytometry. It is filed as cell membranes.
With `C[C@H](NC(=O)[C@H](Cc1ccc(O)cc1)NC(=O)[C@H](CCC(N)=O)NC(=O)CNC(=O)[C@@H](N)CO)C(=O)N[C@@H](CO)C(=O)N[C@@H](Cc1ccc(O)cc1)C(=O)N[C@@H](Cc1cnc[nH]1)C(=O)N[C@@H](CS)C(=O)N[C@@H](Cc1c[nH]c2ccccc12)C(=O)N[C@@H](CS)C(=O)N[C@@H](Cc1c[nH]c2ccccc12)C(=O)N[C@@H](CCCNC(=N)N)C(=O)N[C@@H](CC(=O)O)C(=O)N1CCC[C@H]1C(=O)NCC(=O)N[C@@H](CCCNC(=N)N)C(=O)N[C@@H](CO)C(=O)NCC(=O)NCC(=O)N[C@@H](CO)C(=O)N[C@@H](CCCCN)C(=O)O` (H-SGQYASYHCWCWRDPGRSGGSK-OH), binding was characterised by a dissociation constant (Kd) of 0.094 µM.

In general, inhibition refers to the relative decrease from the control value, in per cent. The term EC50 denotes the concentration giving half of the maximal effect. Broadly, the IC50 is the concentration at which inhibition is half-maximal. As a reminder, the Kd is the free concentration of one partner at which half of the binding sites on the other are occupied at equilibrium, for simple one-to-one binding. A low value points to tighter binding.

(Values after ChEMBL document CHEMBL4330055, “Development of Inhibitors of the Programmed Cell Death-1/Programmed Cell Death-Ligand 1 Signaling Pathway” (J Med Chem, 2019).)
